Values quoted from earlier work, collected in EP0292255A2, “Inhibitor of ribonucleotide reductase” (Merck & Co., Inc., priority 1987, dated 1988).
Ends that are not written are not given here.

System: ribonucleotide reductase enzyme of herpes simplex virus
Settings: result in words, from Nature 321:439-441 and 441-443 (1986)

Row | Substance | inhibition of the activity of the ribonucleotide reductase enzyme of herpes simplex virus in vitro
1 | YGAVVNDL [8-desalanine homolog of the nonapeptide, disclosed by Dutia et al] | inhibited
2 | Tyr Ala Gly Ala Val Val Asn Asp Leu (YAGAVVNDL; printed: Tyr Ala Gly Ala Val Val Asn Asp Leu) [nonapeptide disclosed by Dutia et al. and Cohen et al] | inhibited
